From PubChem BioAssay (NCI)
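Compound exposure: 48 hours, 5 concentrations, 96-well plates. At the GI50, growth is halved. The concentration for full growth arrest is given as TGI.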

What was measured:
Assay in all cases: DTP human tumour cell line panel, 48 h
[1] = system: A549 NSCLC
[2] = system: HCT-116 colon
[3] = system: KM12 colon
[4] = system: MCF7 breast
[5] = system: NCI-H23 lung
[6] = system: SF-539 CNS
[7] = system: SK-MEL-28 melanoma
[8] = system: SNB-19 CNS
[9] = system: T-47D breast
[10] = system: SR leukemia

SMILES	GI50 [1] [µM]	TGI [1] [µM]	GI50 [2] [µM]	TGI [2] [µM]	GI50 [3] [µM]	TGI [3] [µM]	GI50 [4] [µM]	TGI [4] [µM]	GI50 [5] [µM]	TGI [5] [µM]	GI50 [6] [µM]	TGI [6] [µM]	GI50 [7] [µM]	TGI [7] [µM]	GI50 [8] [µM]	TGI [8] [µM]	GI50 [9] [µM]	TGI [9] [µM]	TGI [10] [µM]	GI50 [10] [µM]
CC(C)C[C@H](NC(=O)[C@@H](O)[C@H](N)Cc1ccc([N+](=O)[O-])cc1)C(=O)O	> 25	> 25	> 25	> 25	> 25	> 25	> 25	> 25	> 25	> 25	> 25	> 25	> 25	> 25	> 25	> 25	> 25	> 25	–	–
CCCC(Sc1ccccc1)P(=O)(c1ccccc1)c1ccccc1 (stereo not drawn)	–	> 100	–	> 100	–	> 100	–	–	–	> 100	–	> 100	–	> 100	–	> 100	–	–	66.4	–
COc1cc(C2CC(c3ccc(N(C)C)cc3)=NN2C(C)=O)cc(OC)c1OC (stereo not drawn)	3.36	> 100	1.22	> 45.4	0.933	> 52.8	0.577	> 100	4.33	> 67	1.35	5.34	21	> 100	–	> 100	> 24.7	> 100	> 100	2.39
Cc1ccc(Sc2ccc(C)cc2[N+](=O)[O-])c([N+](=O)[O-])c1	–	> 100	–	> 100	–	> 100	–	–	–	> 100	–	> 100	–	> 100	–	> 100	–	–	–	–
C=C1CCC2C3(C)COC(c4ccccc4Br)OC3CCC2(C)C1C/C=C1/C(=O)OCC1OC(C)=O (stereo not drawn)	2.06	5.26	0.289	0.751	1.55	3.12	0.62	2	1.59	3.17	1.53	2.86	1.76	3.15	2.25	5.85	1.08	2.77	0.706	0.215
CN(C(=O)c1ccncc1)c1ccccc1	–	> 100	–	> 100	–	> 100	–	> 100	–	> 100	–	> 100	–	> 100	–	> 100	–	> 100	> 100	–
CCOc1ccccc1/C=N\N=C(\N)N/N=C/c1ccccc1OCC	4.25	> 100	3.12	> 100	1.89	> 100	1.01	> 100	5.86	> 100	–	–	4.51	> 100	4.49	> 100	3.73	> 100	–	–
C1CCOC2(CCC3(CC2)OCCCCO3)OC1	–	> 100	–	> 100	–	> 100	–	–	–	–	–	> 100	–	> 100	–	> 100	–	–	> 100	–
COc1ccc(-c2nn(-c3cccc(Cl)c3)cc2-c2cc(-c3ccccc3)nc(N)n2)cc1	2.7	13.7	–	–	2.05	4.39	–	–	2.83	10.4	11	27.7	12.4	42.1	12.7	43.8	4.49	17.1	5.21	2.03
C=CCC(OCCOCC)c1cc(OCCOCC)ccc1OC (stereo not drawn)	–	> 100	–	–	–	> 100	–	–	–	–	–	> 100	–	> 100	–	> 100	–	–	–	–
O=C1NC2C=CN(Cc3ccccc3)C=C2C(=O)N2CCCC12 (stereo not drawn)	–	> 100	–	> 100	–	> 100	–	–	–	> 100	–	> 100	–	> 100	–	> 100	–	–	> 100	–
C[C@@H](NC1CCC[C@H]1O)c1ccccc1 (stereo partly drawn)	–	> 100	–	> 100	–	> 100	–	–	–	–	–	–	–	> 100	–	> 100	–	–	–	–
COc1cc(/C=C/C(=O)c2sc(NNC(C)=O)nc2C)ccc1O	–	> 100	–	–	–	> 100	–	–	–	> 100	–	> 100	–	> 100	–	–	–	–	–	–
CCCCNC(=O)NS(=O)(=O)c1ccc(N2N=C(c3cc(C)ccc3C)CC2c2cc(OC)c(OC)c(OC)c2)cc1 (stereo not drawn)	2.53	9.78	–	–	2.25	5.26	2.06	5.58	2.35	6.22	1.9	3.88	1.97	4.73	2.75	12.7	3.91	18.4	–	–
N=C(N)c1ccc(COc2ccccc2OCc2ccc(C(=N)N)cc2)cc1	57.5	> 100	35.2	> 100	–	–	46.5	> 100	49.4	> 100	14	34.6	70	> 100	41.4	> 100	58.4	> 100	–	–
CC12CC(OC(=O)[C@]1(C)O)[C@@H]([C@]1(O)CC[C@H]3[C@@H]4C[C@H]5O[C@]56[C@@H](O)C=CC(=O)[C@]6(C)[C@H]4CC[C@@]31C)C2 (stereo partly drawn)	–	> 100	–	13.2	–	28.7	–	17.2	–	14.4	–	7.29	–	30.2	–	> 100	–	32.9	–	–
N.N.NCCCCCCN.O=C([O-])CC(=O)[O-].O=C([O-])CC(=O)[O-].[Pt+4].[Pt+4]	> 100	> 100	> 100	> 100	> 100	> 100	–	–	57.3	> 100	73.9	> 100	> 100	> 100	> 72.1	> 100	–	–	> 100	> 41.9
COC(=O)C1=C(C(=O)OC)SC(=C(N=Nc2ccccc2)c2ccccc2)S1	–	> 100	–	> 100	–	> 100	–	–	–	> 100	–	> 100	–	> 100	–	> 100	–	–	> 100	–
O=C1CCC2(c3ccccc3)Nc3ncccc3N12 (stereo not drawn)	–	> 100	–	–	–	> 100	–	–	–	> 100	–	> 100	–	> 100	–	–	–	–	–	–
CCNCCNc1cc(C2CCCCC2)c(C#N)c2nc3ccccc3n12	2.19	4.76	1.37	2.72	2.76	8.48	1.53	3.27	2.06	5.54	–	–	1.7	3.36	4.9	18.4	1.58	3.42	1.04	0.288

SMILES	GI50 [1] [µM]	TGI [1] [µM]	GI50 [2] [µM]	TGI [2] [µM]	GI50 [3] [µM]	TGI [3] [µM]	GI50 [4] [µM]	TGI [4] [µM]	GI50 [5] [µM]	TGI [5] [µM]	GI50 [6] [µM]	TGI [6] [µM]	GI50 [7] [µM]	TGI [7] [µM]	GI50 [8] [µM]	TGI [8] [µM]	GI50 [9] [µM]	TGI [9] [µM]	TGI [10] [µM]	GI50 [10] [µM]
C=CC1C(OC2OC(CO)C(O)C(O)C2O)OC=C(C(=O)OC)C1CC=O (stereo not drawn)	–	> 100	–	–	–	> 100	–	–	–	> 100	–	> 100	–	> 100	–	> 100	–	–	> 100	–
CCOC(=O)c1nc(-c2ccccc2)oc1OCC	–	> 100	–	> 100	–	> 100	–	–	–	> 100	–	> 100	–	> 100	–	> 100	–	–	–	–
O=C(CN(/C=C/C(=O)C(F)(F)F)c1ccccc1)c1ccc(Cl)c(Cl)c1	13.4	29.8	12.7	> 100	12.3	28.4	5.2	55.3	13.6	26.7	18	39.8	23.9	56.2	20.3	46.4	15.8	55.7	–	–
C/C=C/C=C/CCCCCCCCCCCCCC1(OC)C=CC(CC(=O)OC)OO1 (stereo not drawn)	5.57	19.7	–	21.7	1.56	3.13	–	–	4.3	14	–	28.6	–	28.7	–	31.7	–	–	7.13	–
CCOC(=O)C1=C(Nc2cccc3ccccc23)OC/C1=N\NC(=O)c1ccccc1O	–	> 100	–	> 69.6	–	> 100	–	–	–	15.3	–	46.8	–	> 100	–	> 100	–	–	41.4	–
Cc1c(Cl)cccc1NC1=C(Cl)C(=O)N(Cc2ccccc2)C1=O	12	29.6	10.4	22.1	2.17	14	25.3	59	10.8	22.7	–	–	15.1	30.7	22.1	61.5	25.4	> 100	–	–
O=C(CCc1cc(-c2ccccc2)nc(=S)[nH]1)Nc1ccccc1[N+](=O)[O-]	–	> 100	–	> 100	–	> 100	–	–	–	> 100	–	> 100	–	> 100	–	> 100	–	–	> 100	–
CCC1CCc2c(OC)ccc(OCC(=O)O)c2C1=O (stereo not drawn)	–	> 100	–	–	–	> 100	–	–	–	> 100	–	> 100	–	> 100	–	> 100	–	–	> 100	–
COc1cc(C)c(O)c(C(=O)O)c1	–	> 100	–	> 100	–	> 100	–	–	–	> 100	–	–	–	> 100	–	> 100	–	–	> 100	–
CC1CCC(C(C)C)C(O[C@@H]2OC(=O)C[C@@H]2Sc2ccccc2)C1 (stereo partly drawn)	–	85.9	–	74	–	54.1	–	–	–	96.3	–	61.8	–	85.7	–	> 100	–	–	–	–
CC(C)(C#N)c1cc(C(=O)Nc2cc(Nc3ncccc3-c3ncnc4nc[nH]c34)ccc2F)cc(C(F)(F)F)c1	–	> 10	0.242	> 2.35	1.18	> 2.09	–	> 4.6	0.514	> 4.14	–	–	0.107	–	> 2.15	> 10	–	> 3.23	> 10	–
O=C1c2ccccc2CC1C1(O)C(=O)Nc2ccccc21 (stereo not drawn)	–	> 100	–	> 100	–	–	–	–	–	> 100	–	> 100	–	> 100	–	> 100	–	–	–	–
Cc1ccc2c(c1)C(=O)c1c-2n(CCCBr)c(=O)c2cc([N+](=O)[O-])ccc12	> 100	> 100	18.7	> 100	> 100	> 100	4.46	> 100	–	–	> 100	> 100	> 100	> 100	47.9	> 100	7.69	60.8	–	–
CC(=O)Nc1ccc(/C=C/C(=O)c2sc(-c3nc(C)c(C(=O)/C=C/c4ccc(NC(C)=O)cc4)s3)nc2C)cc1	–	> 100	–	> 100	–	> 100	–	–	–	> 100	–	> 100	–	> 100	–	> 100	–	–	> 100	–
Nc1cc(N)c2nc(-c3ccccc3)c(NCc3ccc(F)cc3)nc2c1	17.6	34.9	12.8	> 100	2.82	7.38	2.99	> 100	2.38	4.6	1.83	3.54	1.9	3.77	6.68	20.1	–	–	> 100	4.11
CC(=O)NC1CC2Oc3ccc(C)cc3C(C)(O2)C1O (stereo not drawn)	–	> 100	–	> 100	–	> 100	–	–	–	> 100	–	> 100	–	> 100	–	> 100	–	–	–	–
CS/C(=N\c1nccs1)NC(=O)c1cccc(Cl)c1	–	> 100	–	> 100	–	> 100	–	–	–	> 100	–	> 100	–	> 100	–	> 100	–	–	> 100	–
COC(=O)c1cc(-c2cccn2C)c2c(c1C(=O)OC)c1ccccc1n2C	–	> 100	–	–	–	> 100	–	–	–	> 100	–	> 100	–	> 100	–	> 100	–	–	> 100	–
COC(=O)C1=C(O)c2cc3c(cc2[C@H](c2cc(OC)c(OC)c(OC)c2)C1C(=O)OC)OCO3 (stereo partly drawn)	–	> 100	–	> 100	–	> 100	–	–	–	> 100	–	> 100	–	> 100	–	> 100	–	–	> 100	–
O=c1cc(N=Nc2ccc(O)cc2)[nH]c(=O)[nH]1	–	> 100	–	> 100	–	> 100	–	> 100	–	> 100	–	> 100	–	> 100	–	> 100	–	–	> 100	–
